Consider four molecules from ChEMBL document CHEMBL1155012, “Modulation of peripheral serotonin levels by novel tryptophan hydroxylase inhibitors for the potential treatment of functional gastrointestinal disorders” (J Med Chem, 2008).

The target of this test is Tryptophan 5-hydroxylase 1 (Homo sapiens) (UniProt P17752). Nature of the test: Inhibition of TPH1 in human BON cells assessed as inhibition of serotonin biosynthesis.
Sequence of Tryptophan 5-hydroxylase 1 (Homo sapiens) (P17752 whole entry, looked up): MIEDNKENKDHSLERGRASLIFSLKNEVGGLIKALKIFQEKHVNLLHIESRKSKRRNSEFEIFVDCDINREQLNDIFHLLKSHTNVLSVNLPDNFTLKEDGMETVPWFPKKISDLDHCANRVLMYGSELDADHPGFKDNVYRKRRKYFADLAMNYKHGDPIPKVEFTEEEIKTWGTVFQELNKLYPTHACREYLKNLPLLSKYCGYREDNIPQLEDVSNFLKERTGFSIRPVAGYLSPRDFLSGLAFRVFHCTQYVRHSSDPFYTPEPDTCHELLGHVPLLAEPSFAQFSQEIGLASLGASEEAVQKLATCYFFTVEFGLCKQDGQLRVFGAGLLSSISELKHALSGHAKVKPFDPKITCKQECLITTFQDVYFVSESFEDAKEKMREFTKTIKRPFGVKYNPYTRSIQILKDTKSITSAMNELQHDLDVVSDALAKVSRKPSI
As to `Cc1cccc(-c2ccccc2C(Oc2cc(-c3ccc(C[C@H](N)C(=O)O)cc3)nc(N)n2)C(F)(F)F)c1` (some centres undefined), the concentration giving a half-maximal response (EC50) was found to be 560 nM. The same measure for `Nc1nc(OC(c2ccccc2-c2ccco2)C(F)(F)F)cc(-c2ccc(C[C@H](N)C(=O)O)cc2)n1` (some centres undefined): 800 nM. In the case of `Nc1nc(OC(c2ccccc2-n2ccc(C(F)(F)F)n2)C(F)(F)F)cc(-c2ccc(C[C@H](N)C(=O)O)cc2)n1` (some centres undefined), the 50% effective concentration (EC50) was 750 nM.

As to `Nc1nc(OC(c2sccc2-c2ccco2)C(F)(F)F)cc(-c2ccc(C[C@H](N)C(=O)O)cc2)n1` (some centres undefined), the concentration for a half-maximal effect (EC50) came out at 1190 nM.
